From publication PMC8402075, “Synthesis and Antiplasmodial Activity of Bisindolylcyclobutenediones” (Molecules, 2021)
Read-outs that look alike come from different tables or passages of the source.

Assays:
[1] = tested on: P. falciparum (NF54-luc strain) erythrocytic stages; assay: Luciferase-based viability screening for antiplasmodial activity; assay type: cell-based, Plasmodium falciparum; conditions: for inhibition at 3 µM: read-out: Inhibition at 3 µM [%]
Method: All synthesized new bisindolylcyclobutenediones 2a–2ar and the related bisindolylmaleimide 8 [37] were screened for inhibition of erythrocytic stages of Plasmodium falciparum employing a bioluminescence-based viability assay on transgenic parasites that constitutively express luciferase (PfNF54-luc). Initially, the compounds were evaluated in single-dose test runs (3 µM). If >20% viability inhibition was observed, dose-response curves were generated and IC50 values were calculated (Table 1). […] The bisindolylmaleimide 8 [37] inhibited the parasites in a single-digit micromolar concentration, similar to many of the bisindolylcyclobutenediones in the study. Because the bisindolylcyclobutenediones 2 display a higher degree of structural novelty, only this compound class was further pursued for its antiplasmodial activity. […] These structural features were considered unfavorable for orientations as illustrated in Figure 2 with 2a and Pfmap-2, PfPK5, PfCDPK2, Pflammer, and PfPK7, respectively. However, a structure generated for 2a in PfGSK-3 in which the indole units are oriented perpendicular to each other (Figure 2a) was considered compatible with the indicated substitution pattern. Consequently, the potent antiplasmodial derivatives 2k, 2ad, and 2ae were tested in a kinase Glo assay for inhibition of recombinant PfGSK-3. […] For the compounds with particularly potent antiplasmodial activity, cytotoxicity was also determined using the human cell line THP-1 to assess selectivity with respect to parasite cells (Table 2).
Screening for the antiplasmodial activity of test compounds was performed by luciferase-based viability assays as reported previously. In brief, asexual erythrocytic stages of transgenic NF54-luc P. falciparum were cultured as described elsewhere. Parasite cultures with parasitaemia of 0.5–1% were incubated in the presence of 3 µM test compounds for 48 h. After the subsequent addition of Bright-Glo substrate solution (Promega, Madison, WI), the resulting luminescence was measured. Untreated cultures (0.01% DMSO) were used as negative controls. Experiments were performed in triplicate and were repeated as a whole at least twice. Blasticidin (Sigma-Aldrich, St. Louis, MO, USA) was included as a positive control.

human THP-1 cell line = assay: Cytotoxicity assay on human THP-1 cell line (Alamar Blue); assay type: cell-based; conditions: for Selectivity Index (SI) = IC50, THP-1/IC50, Pf: THP-1 versus P. falciparum NF54-luc; for IC50: human THP-1 cell line, 48 h, Alamar Blue
Method: The cytotoxicity of selected antiplasmodial bisindolylcyclobutenediones was determined against THP-1 cells following a protocol described previously. In brief, THP-1 cells were incubated with test compounds in serial compound dilutions in the presence of 0.01% DMSO at 37 °C. After 48 h, Alamar Blue was added, and after 4 h the fluorescence was read (λex = 544 nm, λem = 590 nm) using a microplate reader. THP-1 cells in wells containing medium plus 0.01% DMSO served as negative controls. Experiments were performed in triplicate and were repeated as a whole at least twice.

[2] = Plasmodium falciparum, NF54, 48 h, read-out: IC50 [µM], concentration for 50% inhibition of P. falciparum (NF54-luc strain) erythrocytic stages
[3] = Plasmodium falciparum, NF54, 48 h
[4] = Plasmodium falciparum, NF54, read-out: IC50 P. falciparum (quoted in the discussion)
[5] = Plasmodium falciparum, NF54, read-out: IC50, Pf [µM]

Row | Compound | IC50 [1, 2] | inhibition at 3 µM [1, 3] | also measured
1 | O=c1c(-c2c[nH]c3ccccc23)c(-c2c[nH]c3ccccc23)c1=O [2a, 3,4-Bis(1H-indol-3-yl)cyclobut-3-ene-1,2-dione] | 8.33 µM |  | 
2 | COc1ccc2[nH]cc(-c3c(-c4c[nH]c5ccc(F)cc45)c(=O)c3=O)c2c1 [2ab, 3-(5-Fluoro-1H-indol-3-yl)-4-(5-methoxy-1H-indol-3-yl)cyclobut-3-ene-1,2-dione] |  | 19.2 ± 3.1% | 
3 | COc1ccc2[nH]cc(-c3c(-c4c[nH]c5ccc(Cl)cc45)c(=O)c3=O)c2c1 [2ac, 3-(5-Chloro-1H-indol-3-yl)-4-(5-methoxy-1H-indol-3-yl)cyclobut-3-ene-1,2-dione] | 1.52 µM |  | 
4 | COc1ccc2[nH]cc(-c3c(-c4cn(C)c5ccc(Br)cc45)c(=O)c3=O)c2c1 [2ag, 3-(5-Bromo-1-methyl-1H-indol-3-yl)-4-(5-methoxy-1H-indol-3-yl)cyclobut-3-ene-1,2-dione] |  | -0.06 ± 2.43% | IC50 [1, 4]: > 10 µM
5 | COc1ccc2[nH]cc(-c3c(-c4c[nH]c5ccc(C#N)cc45)c(=O)c3=O)c2c1 [2ah, 3-[2-(5-Methoxy-1H-indol-3-yl)-3,4-dioxocyclobut-1-en-1-yl]-1H-indole-5-carbonitrile] | 6.92 µM |  | 
6 | COc1ccc2[nH]cc(-c3c(-c4c[nH]c5c(Cl)cccc45)c(=O)c3=O)c2c1 [2ai, 3-(7-Chloro-1H-indol-3-yl)-4-(5-methoxy-1H-indol-3-yl)cyclobut-3-ene-1,2-dione] | 0.691 µM | 84.5 ± 1% | Selectivity Index (SI) = IC50, THP-1/IC50, Pf (human THP-1 cell line): 259; IC50 (human THP-1 cell line): 179 µM; IC50 [1, 5]: 0.69 µM
7 | COc1ccc2[nH]cc(-c3c(-c4c[nH]c5c(Br)cccc45)c(=O)c3=O)c2c1 [2aj, 3-(7-Bromo-1H-indol-3-yl)-4-(5-methoxy-1H-indol-3-yl)cyclobut-3-ene-1,2-dione] | 0.296 µM | 99.5 ± 0.4% | Selectivity Index (SI) = IC50, THP-1/IC50, Pf (human THP-1 cell line): 4.7; IC50 (human THP-1 cell line): 1.42 µM; IC50 [1, 5]: 0.3 µM
8 | COc1ccc2[nH]cc(-c3c(-c4c[nH]c5c(I)cccc45)c(=O)c3=O)c2c1 [2ak, 3-(7-Iodo-1H-indol-3-yl)-4-(5-methoxy-1H-indol-3-yl)cyclobut-3-ene-1,2-dione] | 0.116 µM | 98.8 ± 1.2% | Selectivity Index (SI) = IC50, THP-1/IC50, Pf (human THP-1 cell line): 7.0; IC50 (human THP-1 cell line): 0.84 µM; IC50 [1, 5]: 0.12 µM
9 | CCc1cccc2c(-c3c(-c4c[nH]c5ccc(OC)cc45)c(=O)c3=O)c[nH]c12 [2al, 3-(7-Ethyl-1H-indol-3-yl)-4-(5-methoxy-1H-indol-3-yl)cyclobut-3-ene-1,2-dione] | 0.511 µM | 87 ± 0.5% | Selectivity Index (SI) = IC50, THP-1/IC50, Pf (human THP-1 cell line): 1.4; IC50 (human THP-1 cell line): 0.7 µM; IC50 [1, 5]: 0.51 µM
10 | COc1ccc2[nH]cc(-c3c(-c4c[nH]c5cc(Br)ccc45)c(=O)c3=O)c2c1 [2am, 3-(6-Bromo-1H-indol-3-yl)-4-(5-methoxy-1H-indol-3-yl)cyclobut-3-ene-1,2-dione] |  | 9.55 ± 5.8% | 
11 | COc1ccc2[nH]cc(-c3c(-c4c[nH]c5cccc(Br)c45)c(=O)c3=O)c2c1 [2an, 3-(4-Bromo-1H-indol-3-yl)-4-(5-methoxy-1H-indol-3-yl)cyclobut-3-en-1,2-dione] |  | 25.7 ± 2.7% | 
12 | COc1ccc2c(c1)c(-c1c(-c3c[nH]c4ccc(Br)cc34)c(=O)c1=O)cn2C [2ao, 3-(5-Bromo-1H-indol-3-yl)-4-(5-methoxy-1-methyl-1H-indol-3-yl)cyclobut-3-en-1,2-dione] | 0.504 µM | 95.4 ± 1.1% | Selectivity Index (SI) = IC50, THP-1/IC50, Pf (human THP-1 cell line): 6.3; IC50 (human THP-1 cell line): 3.13 µM; IC50 [1, 5]: 0.5 µM; IC50 [1, 4]: 0.54 µM
13 | O=c1c(-c2c[nH]c3ccc(O)cc23)c(-c2c[nH]c3ccc(Br)cc23)c1=O [2ap, 3-(5-Bromo-1H-indol-3-yl)-4-(5-hydroxy-1H-indol-3-yl)cyclobut-3-ene-1,2-dione] |  | 2.52 ± 1.4% | 
14 | O=c1c(-c2c[nH]c3ccc(I)cc23)c(-c2c[nH]c3ccc(I)cc23)c1=O [2aq, 3,4-Bis(5-iodo-1H-indol-3-yl)cyclobut-3-ene-1,2-dione] |  | 1.79 ± 1.8% | 
15 | O=c1c(-c2c[nH]c3ccccc23)c(-c2c[nH]c3ccc(Br)cc23)c1=O [2b, 3-(5-Bromo-1H-indol-3-yl)-4-(1H-indol-3-yl)cyclobut-3-ene-1,2-dione] | 3.02 µM |  | Selectivity Index (SI) = IC50, THP-1/IC50, Pf (human THP-1 cell line): 7.6; IC50 (human THP-1 cell line): 23 µM; IC50 [1, 5]: 3.02 µM; IC50 [1, 4]: 3 µM
16 | O=c1c(-c2c[nH]c3ccccc23)c(-c2c[nH]c3ccc(Cl)cc23)c1=O [2c, 3-(5-Chloro-1H-indol-3-yl)-4-(1H-indol-3-yl)cyclobut-3-ene-1,2-dione] | 4.23 µM |  | 
17 | O=c1c(-c2c[nH]c3ccccc23)c(-c2c[nH]c3ccc(OCc4ccccc4)cc23)c1=O [2e, 3-[5-(Benzyloxy)-1H-indol-3-yl]-4-(1H-indol-3-yl)cyclobut-3-ene-1,2-dione] |  | -4.43 ± 10.6% | 
18 | N#Cc1ccc2[nH]cc(-c3c(-c4c[nH]c5ccccc45)c(=O)c3=O)c2c1 [2f, 3-[2-(1H-Indol-3-yl)-3,4-dioxocyclobut-1-ene-1-yl]-1H-indol-5-carbonitrile] | 6.72 µM |  | 
19 | Cc1[nH]c2ccccc2c1-c1c(-c2c[nH]c3ccccc23)c(=O)c1=O [2g, 3-(1H-Indol-3-yl)-4-(2-methyl-1H-indol-3-yl)cyclobut-3-ene-1,2-dione] | > 30 µM |  | 
20 | Cn1cc(-c2c(-c3cn(C)c4ccccc34)c(=O)c2=O)c2ccccc21 [2i, 3,4-Bis(1-methyl-1H-indol-3-yl)cyclobut-3-ene-1,2-dione] |  | 3.53 ± 1.7% | 
21 | O=c1c(-c2c(-c3ccccc3)[nH]c3ccccc23)c(-c2c(-c3ccccc3)[nH]c3ccccc23)c1=O [2m, 3,4-Bis(2-phenyl-1H-indol-3-yl)cyclobut-3-ene-1,2-dione] | 2.47 µM |  | 
22 | O=c1c(-c2c[nH]c3ccc(Br)cc23)c(-c2c[nH]c3ccc(Br)cc23)c1=O [2o, 3,4-Bis(5-bromo-1H-indol-3-yl)cyclobut-3-ene-1,2-dione] | > 30 µM |  | 
23 | N#Cc1ccc2[nH]cc(-c3c(-c4c[nH]c5ccc(C#N)cc45)c(=O)c3=O)c2c1 [2p, 3,3’-(3,4-Dioxocyclobut-1-ene-1,2-diyl)bis(1H-indole-5-carbonitrile)] |  | -3.1 ± 0.9% | 
24 | Cn1cc(-c2c(-c3c[nH]c4ccc(Br)cc34)c(=O)c2=O)c2ccccc21 [2t, 3-(5-Bromo-1H-indol-3-yl)-4-(1-methyl-1H-indol-3-yl)cyclobut-3-ene-1,2-dione] |  | 1.38 ± 3.3% | 
25 | COc1ccc2[nH]cc(-c3c(-c4c(C)[nH]c5ccccc45)c(=O)c3=O)c2c1 [2v, 3-(5-Methoxy-1H-indol-3-yl)-4-(2-methyl-1H-indol-3-yl)cyclobut-3-ene-1,2-dione] | 10 µM |  | 
26 | Cc1[nH]c2ccccc2c1-c1c(-c2c(-c3ccccc3)[nH]c3ccccc23)c(=O)c1=O [2w, 3-(2-Methyl-1H-indol-3-yl)-4-(2-phenyl-1H-indol-3-yl)cyclobut-3-ene-1,2-dione] | 9.26 µM |  | 
27 | Cc1[nH]c2ccccc2c1-c1c(-c2c[nH]c3ccc(Br)cc23)c(=O)c1=O [2x, 3-(5-Bromo-1H-indol-3-yl)-4-(2-methyl-1H-indol-3-yl)cyclobut-3-ene-1,2-dione] | > 30 µM |  | 
28 | CN(CC[C@H](N)CC(=O)N[C@H]1C=C[C@H](n2ccc(N)nc2=O)O[C@@H]1C(=O)O)C(=N)N [BSD, Blasticidin, reference compound] |  |  | Inhibition at 3 µM [%] ([1]; 3 µM test compound, 48 h, P. falciparum NF54-luc erythrocytic stages): 97.6 ± 0.5%; IC50 ([1]; Table 1, 48 h incubation, luminescence viability readout, read-out: IC50 [µM], concentration for 50% inhibition of P. falciparum (NF54-luc strain) erythrocytic stages): 0.288 µM
29 | CN1C(=O)C(c2c[nH]c3ccccc23)=C(c2c[nH]c3ccccc23)C1=O [compound 8, reference compound] | 4 µM | 34.6 ± 0.8% | 
